Key:
Assay in all cases: Weeding effect in post-emergence stage (greenhouse pot test)
Format in all cases: in vivo
Capsella bursa-pastoris = details: 3 weeks after application, fresh weight control rate
Description: (§1) The activity level criteria for plant damage (i.e., growth control rate) are as follows:
(§2) Level 5: growth control rate is above 85%; • Level 4: growth control rate is greater than or equal to 60% and less than 85%; • Level 3: growth control rate is greater than or equal to 40% and less than 60%; • Level 2: growth control rate is greater than or equal to 20% and less than 40%; • Level 1: growth control rate is greater than or equal to 5% and less than 20%; • Level 0: growth control rate is less than 5%.
(§3) The above growth control rates are fresh weight control rates.
(§4) Experiment on weeding effect in post-emergence stage:
(§5) Monocotyledonous and dicotyledonous weed seeds (Descurainia sophia, Capsella bursa-pastoris, Abutilon theophrasti, Galium aparine, Stellaria media, Lithospermum arvense, Rorippa indica, Alopecurus aequalis, Alopecurus japonicus, Eleusine indica, Beckmannia syzigachne, Sclerochloa dura, Phleum paniculatum, Veronica didyma Tenore, Bromus japonicus, Aegilops tauschii, Phalaris arundinacea, Amaranthus retrojlexus, Chenopodiaceae, Commelina communis, Sonchus arvensis, convolvulus arvensis, Cirsium setosum, Solanum nigrum, Acalypha australis, Digitaria sanguinalis, Echinochloa crusgalli, Setaria viridis, Setaria glauca, Leptochloa chinensis, Monochoria vaginalis, Sagittaria trifolia, Scirpus juncoides, Cyperus rotundus, Cyperus iria, Cyperus difformis, Fimbristylis, Portulaca oleracea, Xanthium sibiricum, Pharbitis nil, Conyza japonica, etc.) and major crop seeds (wheat, corn, rice, soybean, cotton, oilseed rape, millet, sorghum, potato, sesame, ricinus, etc.) were placed in plastic pots filled with soil, then covered with 0.5-2 cm of soil, allowed to grow in a good greenhouse environment. After 2 weeks of sowing, the test plants were treated in the 2-3 leaf stage. The tested compounds of the present invention were respectively dissolved in acetone, then added with Tween 80 and 1.5 liter/ha of emulsifiable concentrate of methyl oleate as synergist, diluted with a certain amount of water to obtain a solution with a certain concentration, and sprayed with a spray tower onto the plants. After the application, the plants were cultured for 3 weeks in the greenhouse, and then the experimental results of the weeding were counted. The doses of the used compounds were 500, 250, 125, 60, 15, 7.5 g a.i./ha, and the averages were obtained by repeating for three times.

Conyza japonica = details: post-emergence, 3 weeks after application, fresh weight control rate
Description: as §1, §2, §3, §4, §5

Beckmannia syzigachne = details: 3 weeks after application, fresh weight control rate
Description: as §1, §2, §3, §4, §5

Alopecurus japonicus = details: 3 weeks after application, fresh weight control rate
Description: as §1, §2, §3, §4, §5

Compound | Activity level (growth control rate), Capsella bursa-pastoris (Capsella bursa-pastoris; dose 15 g a.i./ha) | Activity level (growth control rate), Conyza japonica (Conyza japonica; dose 15 g a.i./ha) | Activity level (growth control rate), Beckmannia syzigachne (Beckmannia syzigachne; dose 15 g a.i./ha) | Activity level (growth control rate), Alopecurus japonicus (Alopecurus japonicus; dose 15 g a.i./ha) | Activity level (growth control rate), Capsella bursa-pastoris (Capsella bursa-pastoris; dose 125 g a.i./ha) | Activity level (growth control rate), Conyza japonica (Conyza japonica; dose 125 g a.i./ha) | Activity level (growth control rate), Beckmannia syzigachne (Beckmannia syzigachne; dose 125 g a.i./ha) | Activity level (growth control rate), Alopecurus japonicus (Alopecurus japonicus; dose 125 g a.i./ha)
CCOC(=O)C12CCC(=NOC)C1C(c1cc(-n3c(=O)cc(C(F)(F)F)n(C)c3=O)c(F)cc1Cl)=NO2 (stereo not drawn) [Compound 451] | 5 (Level 5: growth control rate is above 85%) | 4 (Level 4: growth control rate is greater than or equal to 60% and less than 85%) | 4 (Level 4: growth control rate is greater than or equal to 60% and less than 85%) | 4 (Level 4: growth control rate is greater than or equal to 60% and less than 85%) |  |  |  | 
COCCOC(=O)C12CCCC1C(c1cc(-n3c(=O)cc(C(F)(F)F)n(C)c3=O)c(F)cc1Cl)=NO2 (stereo not drawn) [Compound 245] | 5 (Level 5: growth control rate is above 85%) | 4 (Level 4: growth control rate is greater than or equal to 60% and less than 85%) | 5 (Level 5: growth control rate is above 85%) | 5 (Level 5: growth control rate is above 85%) |  |  |  | 
Cn1c(C(F)(F)F)cc(=O)n(-c2cc(C3=NOC4(C(=O)OCCF)CCCC34)c(Cl)cc2F)c1=O (stereo not drawn) [Compound 231] | 5 (Level 5: growth control rate is above 85%) | 4 (Level 4: growth control rate is greater than or equal to 60% and less than 85%) | 5 (Level 5: growth control rate is above 85%) | 5 (Level 5: growth control rate is above 85%) |  |  |  | 
CCOC(=O)CCC12CCCC1C(c1cc(-n3c(=O)cc(C(F)(F)F)n(C)c3=O)c(F)cc1Cl)=NO2 (stereo not drawn) [Compound 533] |  |  |  |  | 5 (Level 5: growth control rate is above 85%) | 5 (Level 5: growth control rate is above 85%) | 5 (Level 5: growth control rate is above 85%) | 5 (Level 5: growth control rate is above 85%)
CCOC(=O)C12ON=C(c3cc(-n4c(=O)cc(C(F)(F)F)n(C)c4=O)c(F)cc3Cl)C1CCC2CC (stereo not drawn) [Compound 477] | 5 (Level 5: growth control rate is above 85%) | 4 (Level 4: growth control rate is greater than or equal to 60% and less than 85%) | 4 (Level 4: growth control rate is greater than or equal to 60% and less than 85%) | 5 (Level 5: growth control rate is above 85%) |  |  |  | 
Cn1c(C(F)(F)F)cc(=O)n(-c2cc(C3=NOC4(C(=O)N5CCCC5)CCCC34)c(Cl)cc2F)c1=O (stereo not drawn) [Compound 427] | 5 (Level 5: growth control rate is above 85%) | 4 (Level 4: growth control rate is greater than or equal to 60% and less than 85%) | 4 (Level 4: growth control rate is greater than or equal to 60% and less than 85%) | 5 (Level 5: growth control rate is above 85%) |  |  |  | 
COC(=O)C12CCCC1C(c1cc(-c3ncc(C(F)(F)F)cc3Cl)c(F)cc1Cl)=NO2 (stereo not drawn) [Compound 585] | 5 (Level 5: growth control rate is above 85%) | 4 (Level 4: growth control rate is greater than or equal to 60% and less than 85%) | 5 (Level 5: growth control rate is above 85%) | 5 (Level 5: growth control rate is above 85%) |  |  |  | 
Cc1cc(C)n(C(=O)C23CCCC2C(c2cc(-n4c(=O)cc(C(F)(F)F)n(C)c4=O)c(F)cc2Cl)=NO3)n1 (stereo not drawn) [Compound 333] | 4 (Level 4: growth control rate is greater than or equal to 60% and less than 85%) | 4 (Level 4: growth control rate is greater than or equal to 60% and less than 85%) | 4 (Level 4: growth control rate is greater than or equal to 60% and less than 85%) | 4 (Level 4: growth control rate is greater than or equal to 60% and less than 85%) |  |  |  | 
Cn1c(=S)n(C)c(=O)n(-c2cc(C3=NOC4(C(=O)OCc5ccccc5)CCCC34)c(Cl)cc2F)c1=O (stereo not drawn) [Compound 51] | 5 (Level 5: growth control rate is above 85%) | 4 (Level 4: growth control rate is greater than or equal to 60% and less than 85%) | 4 (Level 4: growth control rate is greater than or equal to 60% and less than 85%) | 4 (Level 4: growth control rate is greater than or equal to 60% and less than 85%) |  |  |  | 
Cn1c(=S)n(C)c(=O)n(-c2cc(C3=NOC4(C(=O)OCC5CCCO5)CCCC34)c(Cl)cc2F)c1=O (stereo not drawn) [Compound 49] | 5 (Level 5: growth control rate is above 85%) | 4 (Level 4: growth control rate is greater than or equal to 60% and less than 85%) | 5 (Level 5: growth control rate is above 85%) | 4 (Level 4: growth control rate is greater than or equal to 60% and less than 85%) |  |  |  | 
Cn1c(C(F)(F)F)cc(=O)n(-c2cc(C3=NOC4(C(=O)OCCCl)CCCC34)c(Cl)cc2F)c1=O (stereo not drawn) [Compound 424] | 5 (Level 5: growth control rate is above 85%) | 5 (Level 5: growth control rate is above 85%) | 5 (Level 5: growth control rate is above 85%) | 5 (Level 5: growth control rate is above 85%) |  |  |  | 
CCCOC(=O)C12CCCC1C(c1cc(-n3c(=O)n(C)c(=S)n(C)c3=O)c(F)cc1Cl)=NO2 (stereo not drawn) [Compound 4] | 5 (Level 5: growth control rate is above 85%) | 4 (Level 4: growth control rate is greater than or equal to 60% and less than 85%) | 5 (Level 5: growth control rate is above 85%) | 5 (Level 5: growth control rate is above 85%) |  |  |  | 
COC(=O)C12CCOC1C(c1cc(-n3c(=O)cc(C(F)(F)F)n(C)c3=O)c(F)cc1Cl)=NO2 (stereo not drawn) [Compound 372] |  |  |  |  | 5 (Level 5: growth control rate is above 85%) | 4 (Level 4: growth control rate is greater than or equal to 60% and less than 85%) | 4 (Level 4: growth control rate is greater than or equal to 60% and less than 85%) | 4 (Level 4: growth control rate is greater than or equal to 60% and less than 85%)
C=CCOC(=O)C12CCCC1C(c1cc(-n3c(=O)cc(C(F)(F)F)n(C)c3=O)c(F)cc1Cl)=NO2 (stereo not drawn) [Compound 222] | 5 (Level 5: growth control rate is above 85%) | 4 (Level 4: growth control rate is greater than or equal to 60% and less than 85%) | 5 (Level 5: growth control rate is above 85%) | 5 (Level 5: growth control rate is above 85%) |  |  |  | 
CCOC(=O)C12CCCC1C(c1cc(-n3c(=O)cc(C(F)(F)F)n(C)c3=O)c(F)cc1Cl)=NO2 (stereo not drawn) [Compound 215] | 5 (Level 5: growth control rate is above 85%) | 4 (Level 4: growth control rate is greater than or equal to 60% and less than 85%) | 5 (Level 5: growth control rate is above 85%) | 5 (Level 5: growth control rate is above 85%) |  |  |  | 

Reference: patent publication US12396458B2, “Fused ring substituted aromatic compound and preparation method therefor, herbicidal composition, and use thereof” (Qingdao Kingagroot Chemical Compound Co., Ltd., priority 2020, dated 2025)
